Test results as given in PMC4753534 (Journal of Medicinal Chemistry, 2015).
Like-named read-outs stand apart in the source and are kept apart here.

Key:
[1] = mouse, i.p., 24 h, previously reported, cited from earlier work
[2] = target: H1-histamine receptor (H1HR) (Homo sapiens, UniProt P35367); test: H1HR inhibition assay; assay type: cell-based; settings: read-out: H1HR inhibition
[3] = tested on: hepatitis B virus, HCV replicon, herpes simplex virus-1, human cytomegalovirus, vaccinia virus, dengue virus, influenza A (H1N1) virus, respiratory syncytial …; assay type: cell-based
[4] = tested on: HCV-Luc (HCV JFH-1 strain, genotype 2a); test: microbe, parasite or virus in culture; assay type: cell-based; settings: Hepatitis C virus, GETYPE2A, values in nM

Sequence of H1-histamine receptor (H1HR) (P35367 whole entry): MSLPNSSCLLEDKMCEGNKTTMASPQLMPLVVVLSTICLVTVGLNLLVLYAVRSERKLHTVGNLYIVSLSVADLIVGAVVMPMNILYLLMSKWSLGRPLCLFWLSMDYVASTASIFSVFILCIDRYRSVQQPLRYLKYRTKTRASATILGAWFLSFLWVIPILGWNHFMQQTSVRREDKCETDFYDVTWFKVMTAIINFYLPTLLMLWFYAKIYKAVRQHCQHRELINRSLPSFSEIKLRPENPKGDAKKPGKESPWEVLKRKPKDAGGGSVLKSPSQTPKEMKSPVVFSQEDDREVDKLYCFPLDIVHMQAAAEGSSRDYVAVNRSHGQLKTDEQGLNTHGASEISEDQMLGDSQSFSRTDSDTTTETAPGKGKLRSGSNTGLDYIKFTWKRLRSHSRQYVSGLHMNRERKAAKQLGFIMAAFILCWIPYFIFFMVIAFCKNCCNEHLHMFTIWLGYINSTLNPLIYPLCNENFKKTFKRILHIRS

Compound: CN1CCN(C(c2ccc(Cl)cc2)c2ccc(Cl)cc2)CC1 [Compound 30, 1-(Bis(4-chlorophenyl)methyl)-4-methylpiperazine]
- ALT levels (Alanine transaminase; mouse serum, 10 mg/kg i.p., most time points except t = 2 and 4 h): ≤ 80 U/L
- hepatotoxicity (Alanine transaminase; mouse, single 10 mg/kg i.p., ALT also elevated with vehicle only): no clear hepatotoxicity was detected

Compound: Clc1ccc([C@H](c2ccccc2)N2CCNCC2)cc1 [(S)-1]
- T1/2 Liver ([1]; 10 mg/kg): 4.7 h
- inhibition at 0.01 µM [2]: ~10%

Compound: CCN1CCN([C@@H](c2ccccc2)c2ccc(Cl)cc2)CC1 [(S)-10, (S)-1-((4-Chlorophenyl) (phenyl)methyl)-4-ethylpiperazine]
- antiviral activity in the NIAID antiviral screen [3]: Little or no antiviral activity was detected

Compound: CN1CCN([C@@H](c2ccccc2)c2ccc(Cl)cc2)CC1 [(S)-2, reference compound]
- T1/2 Liver ([1]; 50 mg/kg): 1.99 h

Compound: NCCOCCN1CCN(C(c2ccccc2)c2ccc(Cl)cc2)CC1 (racemic) [Rac-23, 2-(2-(4-((4-Chlorophenyl) (Phenyl)methyl)piperazin-1-yl)ethoxy)ethanamine]
- EC50 [4]: < 8 nM
